Results on 6 compounds are retold here after patent publication US20120148530A1, “Method for the treatment or prevention of virus infection using polybiguanide-based compounds” (Novaflux Biosciences, Inc., priority 2003, published 2012).

The subject of one data set is HeLa cells. Kind of data set: HeLa cell viability, MTT, 2 hr exposure. Format: cell-based. On the procedure: HeLa cells (ATCC designation CCL-2) were maintained in Dulbecco's Modified Eagle's medium (DMEM). […] All three cell types were cultured in media supplemented with 10% fetal bovine serum (FBS), […] (0.3 mg/ml), antibiotics (penicillin, streptomycin, and kanamycin at 0.04 mg/ml each), and 0.05% sodium bicarbonate.
(§1) The experiments described below were conducted to determine the activity and cytotoxicity of short chain compounds having one or two biguanide groups. […] The efficacy determinations were made using P4R5 cells, which allow for the detection of bacterial β-galactosidase activity upon release of viral tat protein into the parent HeLa cell.

Another data set deals with cell-free HIV-1. The data set can be described thus: Cell-free HIV-1 infectivity in P4R5 cells, β-galactosidase readout. The following applies: 2 hr exposure of cells to compounds in the presence of virus. Format: cell-based. How it is done:
as §1

The target in data set [1] is T1, CXCR4 (Homo sapiens, UniProt P61073).
T1 construct: host or cells: P4-R5 (P4-CCR5) cells, HeLa-derived
Kind of data set: FACS analysis of CXCR4 on PM-1 cells. Format: cell-based. The note with it: PEHMB 0.1%, BCD 0.3%, untreated 45%. On the procedure: (§2) After a 2 hr exposure to PEHMB (0.1%), P4-R5 cell presentation of CXCR4 was reduced from 98% to 29% (FIG. 6).
A similar experiment (FIG. 7) was performed using the PM-1 T lymphocyte cell line (Lusso et al. 1995 J. Virol 69:3712-3720). […] However, reductions in CD3 were not seen in response to compound exposure, indicating specificity of action with respect to PEHMB's impact on CXCR4 (data not shown).
A general note: Flow cytometry measures light scatter and fluorescence of single cells or particles in a stream.

Data set [2] concerns HIV-1 IIIB. Kind of data set: HIV-1 IIIB viral binding/entry inhibition in P4R5 cells. Format: cell-based. How it is done: (§3) To build on the information provided by the monomeric biguanide data a series of polybiguanide molecules were synthesized with varied linker length as described in Example 1. In these molecules the methylene spacer arms between the biguanide functionalities (X and Y in Forumla I) have been changed.
Antiviral assays include a viral binding/entry assay in which reporter cells such as P4R5 are incubated with virus in the presence of compound for two hours at which time the drug is washed off and the cells incubated for 48 hrs before measuring the intracellular production of β-galactosidase (Ojwang et al. 1995 Antimicrobial Agents and Chemotherapy 39:2426-2435). In cell-associated virus inhibition (CAI) assays, HIV-1111B infected SUP T1 cells are pelleted to remove cell free virus and incubated with each compound for ten minutes at 37° C. before a 1:10 dilution in media and incubation with P4R5 indicator cells for 48 hours before measuring β-galactosidase activity. In cell-free virus assays HIV-1IIIB or BaL were incubated with each compound for 10 minutes at 37° C. before a 1:100 dilution in RPM! 1640, and incubated for 2 hours with P4R5 cells, and subsequent assays for viral infectivity were performed 48 hours later using the β-galactosidase method.
Select compounds were assessed for their ability to inhibit events necessary for HIV-1 binding and entry.
The same strategy was tested using PEHMB.

The test system of the next data set is P4R5 cells. Kind of data set: P4R5 cell viability, MTT.
From the text: as §3
As described above the effect of PEHMB and related compounds on P4R5 cell viability after a two-hour exposure to the compound was compared to the effects of control compounds such as N-9. […] To further evaluate the effect of this class of compound on various types of cells (in particular PEHMB P4-R5 cells, ME-180 cells (ATCC HTB-33; cervical epidermoid carcinoma), VK2/E6E7 human vaginal cell line (Fichorova et al. 1997 Biol. Reprod. 57:847-855), and human primary vaginal karatinocytes (isolated from tissues obtained from vaginal reconstructive surgery)) the compounds were incubated with the different cells for various lengths of time before assessment of cell viability.

In data set [3] the target is T1, CXCR4. The data set can be described thus: FACS analysis of CXCR4 on P4-R5 cells. The note with it: BCD 0.3%. In kind it is cell-based.
From the text: as §2

The subject of data set [4] is HIV-1 IIIB. Kind of data set: Modified viral binding inhibition assay: pre-treatment, wash, then HIV-1 IIIB challenge. Format: cell-based. The note with it: 0.1% or 0.01%.
Method: In a modified viral binding inhibition assay (VBI) assay, HIV-1-susceptible P4R5 cells were maintained for 1 or 2 hr in the presence of PEHMB (0.1% and 0.01%) and then washed extensively before challenge with HIV-1 IIIB.
HIV-1-susceptible target cells were incubated with PEHMB (0.1%) for 2 hr, washed extensively with PBS, and subsequently challenged with HIV-1 IIIB at 0, 0.5, 1, 2, 3, and 4 hours after washing.
For a further data set, the system named is ME-180 cells. The data set can be described thus: ME-180 cell viability. In kind it is cell-based.
Another data set concerns Vk2/E6E7 cells. The data set can be described thus: Vk2/E6E7 cell viability.
The test system of data set [5] is Primary vaginal keratinocytes. The data set can be described thus: Primary vaginal keratinocyte viability. In kind it is cell-based, human.

T1 sequence (P61073 whole entry): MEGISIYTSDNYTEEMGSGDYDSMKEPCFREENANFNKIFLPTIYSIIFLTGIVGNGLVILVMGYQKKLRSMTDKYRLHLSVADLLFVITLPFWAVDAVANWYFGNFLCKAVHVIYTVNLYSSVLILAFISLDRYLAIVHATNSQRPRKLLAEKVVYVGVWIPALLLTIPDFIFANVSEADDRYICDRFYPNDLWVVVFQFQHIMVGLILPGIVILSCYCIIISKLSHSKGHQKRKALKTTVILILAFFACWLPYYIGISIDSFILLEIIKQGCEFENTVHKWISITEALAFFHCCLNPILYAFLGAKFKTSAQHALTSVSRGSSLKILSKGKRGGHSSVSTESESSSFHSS

Turning to `[H]/N=C(/N)N/C(=N/[H])NCCc1ccccc1` [1-phenethyl biguanide], the “CC50 (%)” value in the data set with HeLa cells was 0.538%.
On to `N=C(N)NC(=N)Nc1ccccc1` [1-phenyl biguanide], for which, in the data set with HeLa cells, the “CC50 (%)” value came out at 0.150%. Moreover, the “IC50 (%)” value with cell-free HIV-1 is reported as 0.522%.
At CXCR4 [1], `OC[C@H]1O[C@@H]2O[C@H]3[C@H](O)[C@@H](O)[C@@H](O[C@H]4[C@H](O)[C@@H](O)[C@@H](O[C@H]5[C@H](O)[C@@H](O)[C@@H](O[C@H]6[C@H](O)[C@@H](O)[C@@H](O[C@H]7[C@H](O)[C@@H](O)[C@@H](O[C@H]8[C@H](O)[C@@H](O)[C@@H](O[C@H]1[C@H](O)[C@H]2O)O[C@@H]8CO)O[C@@H]7CO)O[C@@H]6CO)O[C@@H]5CO)O[C@@H]4CO)O[C@@H]3CO` [BCD, β-cyclodextrin] registered a CXCR4 presentation of 22%. In addition, in the data set with HIV-1 IIIB [2] (PEHMB 0.1%, BCD 0.3%, HIV-1 strain IIIB), the “remaining infectivity, % of mock-treated cells” value is recorded as 27%. For the same compound, the “cytotoxicity, FIG. 4A” value in the data set on P4R5 cells is recorded as “non-cytotoxic”. Further, on CXCR4 [3], the “effect on CXCR4” value is “no apparent effect”.
Consider dextran sulfate, for which the “residual antiviral activity after removal of compound” value in the data set on HIV-1 IIIB [4] is reported as “no residual antiviral activity”.
On to nonoxynol-9 [N-9], for which the “CC50 % 10 minute exposure” value turned out to be 0.20% in the data set on ME-180 cells (10 minute exposure); 0.03% in the data set with Vk2/E6E7 cells (10 minute exposure); 0.2% in the data set on P4R5 cells (P4-R5 cells, 10 minute exposure). Also, the “CC50 % 2 hr exposure” value with ME-180 cells (2 hr exposure) amounted to 0.008%; in the data set with Vk2/E6E7 cells (2 hr exposure), 0.006%; in the data set with P4R5 cells (P4-R5 cells, 2 hr exposure), 0.008%; in data set [5] it was 0.007%. Also, the “CC50 % 6 hr exposure” value turned out to be 0.007% in the data set with ME-180 cells (6 hr exposure); 0.002% in the data set with Vk2/E6E7 cells (6 hr exposure); 0.005% in the data set on P4R5 cells (P4-R5 cells, 6 hr exposure). Further, the “CC50 (%)” value in the data set with HeLa cells turned out to be 0.007%; with P4R5 cells (P4R5 cell data (2 hr exposure), Table 6), 0.005%; in the data set with P4R5 cells (P4R5 cells, 2 hr exposure, MTT (Table 3)), 0.007%; in the data set with P4R5 cells (Table 5) it was 0.007%. The IC50 in the data set with HIV-1 IIIB [2] stood at 0.003%. Besides, the “IC50 (%)” value in the data set with HIV-1 IIIB [2] (P4R5 cells, 2 hr exposure in the presence of HIV-1IIIB, Table 6) is on record as 0.005%; in the data set with HIV-1 IIIB [2] (Table 3), 0.005%; in the data set with HIV-1 IIIB [2] (Table 5), 0.005%; with cell-free HIV-1 it was 0.005%. Further, the CC50 with P4R5 cells (MTT) was determined as 0.003%.
xyleneylene bis-biguanide: the “CC50 (%)” value with HeLa cells was 0.385%.
